{"source": "patent US12605382B2", "about": "“Pharmaceutical composition for preventing, alleviating, or treating cancer containing 2,6-dichloro-4-(4-(4-hydroxycyclohexylamino)-7H- pyrrolo[2,3-d]pyrimidin-5-yl)phenol as active ingredient” (JBKLAB CO., LTD., priority 2021, dated 2026)", "key": {"[1]": {"system": "tumor tissues (MDA-MB-231)", "assay": "H&E staining of tumor tissue, cell necrosis areas", "format": "in vivo, BALB/c-nude mice", "settings": "T4, T5 and T6 groups", "protocol": "(§1) An experiment was performed to confirm the tumor necrosis effect of the compound of Example 1, the active ingredient of the pharmaceutical composition of the present invention, by measuring the number of apoptotic bodies in tumors and H&E staining of the tumor tissues in BALB/c-nude mice injected with cancer cell lines.\nThen, the sections were stained with hematoxylin and eosin, and cell necrosis areas were observed."}, "HepG2 [2]": {"system": "HepG2", "assay": "Clonogenic assay", "format": "cell-based", "settings": "2.5 and 5 μM, 10 days", "protocol": "(§2) HepG2 and Hep3B were each seeded in 12-well plates at the density of 3×10^3 cells/well and cultured for 24 hours. Then, Sorafenib and the compound of Example 1 were treated thereto at 2.5 and 5 μM each and cultured for 10 days. Upon completion of the culture, the cells were washed with PBS, fixed with 37% formaldehyde, and stained with 0.01% crystal violet. After staining, the cells were washed with distilled water and the colonies of stained cells were photographed."}, "Hep3B [3]": {"system": "Hep3B", "assay": "Clonogenic assay", "format": "cell-based", "settings": "2.5 and 5 μM, 10 days", "protocol": "as §2"}, "[4]": {"system": "4T1 murine triple negative breast cancer cells", "assay": "Tumor size in triple-negative breast cancer allograft mouse model", "format": "in vivo, BALB/c mice", "settings": "10 mg/kg intravenously", "protocol": "(§3) 4T1 murine triple negative breast cancer cells (6×10^5 cells) were injected into the hind limbs of 6-week-old immune-competent BALB/c mice. Seven days after injection, after confirming consistent tumor growth, 10 mice from each group were selected and used in subsequent experiments.\n(§4) The experimental groups consisted of a control group (no treatment), a radiotherapy group, a group treated with the compound of Example 1, and a group treated with a combination of the compound of Example 1 and radiotherapy. Each treatment was carried out for 31 days after tumor implantation.\n(§5) Radiation treatment was performed using electron beams, and a total of 24 Gy was irradiated three times, once every two days for one week (Days 10, 12, and 14) (8 Gy×3). The compound of Example 1 was administered intravenously at a dose of 10 mg/kg once every 2 or 3 days (Days 10, 12, 14, 17, 19, and 21) for a total of 6 times over 2 weeks. On the days when radiation therapy and drug administration were conducted simultaneously, the compound of Example 1 was administered after confirming that the mice had recovered from anesthesia 4 hours after radiation therapy.\nOn each treatment day, the length and width of the tumor were measured using a vernier caliper, and then the tumor volume (mm^3) was calculated using mathematical formula 1 below. Volume (mm^3)=length (mm)×{width (mm)}^2×0.5 [Mathematical Formula 1]"}, "BT20": {"system": "BT20", "assay": "Cell viability assay (WST-8), breast cancer cell line", "format": "cell-based, human", "settings": "dose dependently", "protocol": "An experiment was performed to confirm the growth inhibitory effect of the compound of Example 1, the active ingredient of the pharmaceutical composition of the present invention, on breast cancer cell lines through cell viability assay.\nSpecifically, the cell viability assay was performed as follows. BT20, a human-derived breast cancer cell line, and MDA-MB-231, a TNBC cell line, were each seeded in 96-well plates at the density of 5×10^3 cells/well and cultured for 24 hours. Then, I-bet 762 and the compound of Example 1 were treated thereto at different concentrations and cultured for 48 hours. At the end of the culture, 100 μl of WST-8 solution was added to each well of the plate, and the absorbance was measured with a microplate reader using a 450 nm optical filter to measure the formazan produced by the reducing factors in living cells.\nFIGS. 4A-4C show the cell viability of MDA-MB-231, MDA-MB-453, and BT-20 after 24 hours of treatment with the compound of Example 1. As shown in FIGS. 4A-4C, it was confirmed that the cell viability was suppressed not only in general breast cancer cell lines, but also in TNBC cell lines dose dependently."}, "[5]": {"system": "4T1 murine triple negative breast cancer cells", "assay": "Lung metastasis in triple-negative breast cancer allograft mouse model", "format": "in vivo, BALB/c mice", "settings": "31st day", "protocol": "as §3, §4, §5\nMice were prepared in the same manner as in Example 8, and the lungs of the mice were removed on the 31st day after tumor injection, and the results of observing lung metastasis are shown in FIG. 13."}, "HepG2 [6]": {"system": "HepG2", "assay": "WST-8 cell viability assay, hepatocellular carcinoma cell line", "format": "cell-based", "protocol": "(§6) Specifically, the WST-8 assay to check the cell viability of HepG2 and Hep3B, which are hepatocellular carcinoma cell lines shown in FIGS. 7A-7C and 8A-8C, was performed as follows. HepG2 and Hep3B were each seeded in 96-well plates at the density of 5×10^3 cells/well and cultured for 24 hours. Then, Sorafenib and OPT-0139 were diluted stepwise at a twofold concentration and then treated to the plates at different concentrations, followed by culture for 24, 48, and 72 hours. […] of WST-8 solution was added to each well of the plate, and the absorbance was measured with a microplate reader using a 450 nm optical filter to measure the formazan produced by the reducing factors in living cells.\n(§7) Therefore, the number of living cells could be measured by measuring absorbance."}, "Hep3B [7]": {"system": "Hep3B", "assay": "WST-8 cell viability assay, hepatocellular carcinoma cell line", "format": "cell-based", "protocol": "as §6, §7"}, "breast cancer cell line": {"system": "breast cancer cell line", "assay": "Formation of mammospheres in a breast cancer cell line", "format": "cell-based"}, "SK-MEL-2": {"system": "SK-MEL-2", "assay": "Cytotoxicity on cancer cell lines", "format": "cell-based", "settings": "SK-MEL-2, dose dependently", "protocol": "(§8) The cytotoxicity of the compound of Example 1 against various cancer cell lines was evaluated through a process similar to the evaluation of liver cancer cell line inhibition described above. Etoposide, sold as an anticancer agent, was used as a control group drug."}, "A549": {"system": "A549", "assay": "Cytotoxicity on cancer cell lines", "format": "cell-based", "settings": "A549, dose dependently", "protocol": "as §8"}, "HCT15": {"system": "HCT15", "assay": "Cytotoxicity on cancer cell lines", "format": "cell-based", "settings": "HCT15, dose dependently", "protocol": "as §8"}, "SK-OV-3": {"system": "SK-OV-3", "assay": "Cytotoxicity on cancer cell lines", "format": "cell-based", "settings": "SK-OV-3, dose dependently", "protocol": "as §8"}, "[8]": {"system": "tumor tissues (MDA-MB-231)", "assay": "Number of apoptotic bodies in tumor tissues", "format": "in vivo, BALB/c-nude mice", "settings": "for number of apoptotic body: sum of five areas at ×400", "protocol": "as §1\nSpecifically, to measure the number of apoptotic bodies in the tumor tissues of the T4, T5, and T6 groups of Experimental Example 1, five areas where the tumor tissues were growing were randomly selected and the number of apoptotic bodies was measured at ×400 magnification. The sum of the measurements was calculated, expressed as individual values, and statistically compared using GraphPad Prism 5."}}, "data": [{"molecule": "Oc1c(Cl)cc(-c2c[nH]c3ncnc(N[C@H]4CC[C@H](O)CC4)c23)cc1Cl", "note": "[Example 1, (trans)-2,6-dichloro-4-(4-(4-hydroxycyclohexylamino)-7H-pyrrolo[2,3-d]pyrimidin-5-yl)phenol]", "values": [{"measurement": "areas of tissue necrosis compared to NC group (H&E)", "setting": "[1]", "value": "more areas of tissue necrosis"}, {"measurement": "number of colonies, treated vs not treated", "setting": "HepG2 [2]", "value": "clear difference in the number of colonies"}, {"measurement": "number of colonies, treated vs not treated", "setting": "Hep3B [3]", "value": "clear difference in the number of colonies"}, {"measurement": "tumor growth compared to control group", "setting": "[4]; alone, 6 times over 2 weeks, observed 31 days", "value": "significantly delayed the tumor growth"}, {"measurement": "tumor growth compared to each administration alone", "setting": "[4]; combined with radiation (8 Gy×3), 6 times", "value": "superior inhibitory effect on the tumor growth"}, {"measurement": "cell viability", "setting": "BT20; BT20, 48 hours", "value": "inhibited the cell viability"}, {"measurement": "cell viability", "setting": "BT20; BT-20, 24 hours", "value": "suppressed"}, {"measurement": "lung metastasis compared to control group", "setting": "[5]; alone, 10 mg/kg intravenously", "value": "significantly reduced metastasis"}, {"measurement": "lung metastases compared to each administration alone", "setting": "[5]; combined with radiation (8 Gy×3)", "value": "significantly (P<0.05) reduced lung metastases"}, {"measurement": "effect on cell viability compared to Sorafenib", "setting": "HepG2 [6]", "value": "remarkable effect compared to Sorafenib"}, {"measurement": "cell viability", "setting": "HepG2 [6]; 24, 48 and 72 hours", "value": "decreased the cell viability dose and time dependently"}, {"measurement": "effect on cell viability compared to Sorafenib", "setting": "Hep3B [7]", "value": "remarkable effect compared to Sorafenib"}, {"measurement": "cell viability", "setting": "Hep3B [7]; 24, 48 and 72 hours", "value": "decreased the cell viability dose and time dependently"}, {"measurement": "formation of mammospheres", "setting": "breast cancer cell line", "value": "inhibits"}, {"measurement": "toxicity to cancer cell line", "setting": "SK-MEL-2", "value": "excellent toxicity"}, {"measurement": "toxicity to cancer cell line", "setting": "A549", "value": "excellent toxicity"}, {"measurement": "toxicity to cancer cell line", "setting": "HCT15", "value": "excellent toxicity"}, {"measurement": "toxicity to cancer cell line", "setting": "SK-OV-3", "value": "excellent toxicity"}, {"measurement": "number of apoptotic bodies compared to NC (Negative Control)", "setting": "[8]; T4, T5 and T6 groups, dose dependently", "value": "higher"}, {"measurement": "number of apoptotic body", "setting": "[8]; T4: 5 mg/kg once i.v.", "value": "9.6 ± 4.7"}, {"measurement": "number of apoptotic body", "setting": "[8]; T5: 10 mg/kg once i.v.", "value": "9.2 ± 4.6"}, {"measurement": "number of apoptotic body", "setting": "[8]; T6: 20 mg/kg once i.v.", "value": "13.6 ± 7.4"}]}]}
